Measurements as given in the NIST ThermoML archive (doi:10.1016/j.jct.2016.02.016).

Tests used:
[1] = xn = mol fraction of the nth substance listed; settings: 100 kPa, Liquid; for speed of sound: Frequency=3 MHz, Sing-around technique in a fixed-path interferometer; for mass density: Vibrating tube method
[2] = refractive index (Na D-line) (dimensionless); xn = mol fraction of the nth substance listed; settings: 100 kPa, Liquid, Standard Abbe refractometry

CCCC(C)=O [pentan-2-one] + CN(C)C=O
Settings	mass density, [1] [kg/m3]	refractive index, [2]	speed of sound, [1] [m/s]
293.15 K, x2 = 0	806.83	1.39026	1232.4
293.15 K, x2 = 0.056	–	1.39208	–
293.15 K, x2 = 0.1141	819.616	1.39408	1254.3
293.15 K, x2 = 0.1516	823.961	–	1261.7
293.15 K, x2 = 0.1531	–	1.39541	–
293.15 K, x2 = 0.2063	830.491	1.39735	1273
293.15 K, x2 = 0.2588	836.933	1.39918	1284
293.15 K, x2 = 0.3089	843.115	1.40106	1294.7
293.15 K, x2 = 0.3594	849.625	1.40295	1303.2
293.15 K, x2 = 0.4006	855.077	1.40453	1315.3
293.15 K, x2 = 0.4488	861.489	1.40643	1326.3
293.15 K, x2 = 0.4999	868.584	1.40845	1338.5
293.15 K, x2 = 0.5466	875.212	1.41036	1350
293.15 K, x2 = 0.5976	–	1.41245	–
293.15 K, x2 = 0.5987	882.775	–	1363.1
293.15 K, x2 = 0.6581	891.66	1.41495	1378.4
293.15 K, x2 = 0.6992	–	1.41668	–
293.15 K, x2 = 0.7528	906.494	1.41906	1404.2
293.15 K, x2 = 0.8029	914.576	1.42129	1418.1
293.15 K, x2 = 0.8461	921.84	1.42325	1430.7
293.15 K, x2 = 0.9017	931.277	1.42583	1446.8
293.15 K, x2 = 0.9496	939.704	1.42811	1460.9
298.15 K, x2 = 0	801.99	1.38793	1211.9
298.15 K, x2 = 0.0568	808.267	1.38979	1222.8
298.15 K, x2 = 0.1	813.221	1.39128	1231.3
298.15 K, x2 = 0.1526	819.25	1.3931	1241.7
298.15 K, x2 = 0.1895	823.621	1.39442	1249.2
298.15 K, x2 = 0.2545	831.549	1.3967	1262.9
298.15 K, x2 = 0.3298	841.051	1.39955	1279.3
298.15 K, x2 = 0.3502	843.666	1.40029	1283.9
298.15 K, x2 = 0.3956	849.557	1.40203	1294
298.15 K, x2 = 0.4567	857.796	1.40441	1308.5
298.15 K, x2 = 0.5084	865.012	1.4065	1320.8
298.15 K, x2 = 0.557	871.899	1.40855	1332.9
298.15 K, x2 = 0.6022	878.552	1.41039	1344.4
298.15 K, x2 = 0.6448	884.967	1.41217	1355.5
298.15 K, x2 = 0.7117	895.208	1.41498	1373.4
298.15 K, x2 = 0.7504	901.333	–	1384
298.15 K, x2 = 0.7511	–	1.41672	–
298.15 K, x2 = 0.8027	909.784	1.41905	1398.7
298.15 K, x2 = 0.849	917.57	1.42117	1412.1
298.15 K, x2 = 0.9019	926.592	1.42364	1427.6
298.15 K, x2 = 0.9429	933.872	1.42557	1440.1
303.15 K, x2 = 0	796.73	1.38523	1191.7
303.15 K, x2 = 0.0581	803.204	–	1203
303.15 K, x2 = 0.0681	–	1.38748	–
303.15 K, x2 = 0.1088	808.974	–	1212.9
303.15 K, x2 = 0.113	–	1.38906	–
303.15 K, x2 = 0.1576	–	1.39062	–
303.15 K, x2 = 0.16	815.007	–	1223.3
303.15 K, x2 = 0.1979	–	1.39212	–
303.15 K, x2 = 0.2044	820.314	–	1232.5
303.15 K, x2 = 0.2343	–	1.39347	–
303.15 K, x2 = 0.262	827.319	–	1244.6
303.15 K, x2 = 0.3046	832.689	–	1253.9
303.15 K, x2 = 0.3128	–	1.39635	–
303.15 K, x2 = 0.3506	838.634	–	1264.1
303.15 K, x2 = 0.3603	–	1.3982	–
303.15 K, x2 = 0.4014	845.319	–	1275.7
303.15 K, x2 = 0.4156	–	1.40034	–
303.15 K, x2 = 0.4485	–	1.40167	–
303.15 K, x2 = 0.482	856.31	–	1294.7
303.15 K, x2 = 0.4954	–	1.40355	–
303.15 K, x2 = 0.5006	858.884	–	1299.1
303.15 K, x2 = 0.5407	864.591	–	1309
303.15 K, x2 = 0.5505	–	1.4058	–
303.15 K, x2 = 0.5986	–	1.40783	–
303.15 K, x2 = 0.5989	873.078	–	1323.9
303.15 K, x2 = 0.6407	–	1.40954	–
303.15 K, x2 = 0.6467	880.175	–	1336.3
303.15 K, x2 = 0.6949	887.598	–	1349.2
303.15 K, x2 = 0.6952	–	1.41187	–
303.15 K, x2 = 0.7401	–	1.41378	–
303.15 K, x2 = 0.7518	896.616	–	1364.8
303.15 K, x2 = 0.7992	–	1.41643	–
303.15 K, x2 = 0.8007	904.558	–	1378.6
303.15 K, x2 = 0.8527	913.274	–	1393.6
303.15 K, x2 = 0.8559	–	1.41908	–
303.15 K, x2 = 0.8991	921.307	–	1407.5
303.15 K, x2 = 0.8994	–	1.42109	–
303.15 K, x2 = 0.9411	–	1.42312	–
303.15 K, x2 = 0.9485	929.946	–	1422.2
